Test results reported in PubChem BioAssay (NCI).
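Following 48 hours of exposure in 96-well plates, responses at five concentrations were used to interpolate endpoints linearly. TGI denotes the concentration required for complete inhibition of growth.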

Experiments:
Assay in all cases: inhibition of tumour cell growth, NCI panel, 48 h
CAKI-1 renal = test system: CAKI-1 renal
SF-295 CNS = test system: SF-295 CNS
SR leukemia = test system: SR leukemia
SF-539 CNS = test system: SF-539 CNS
K-562 leukemia = test system: K-562 leukemia
DU-145 prostate = test system: DU-145 prostate
SW-620 colon = test system: SW-620 colon
SNB-19 CNS = test system: SNB-19 CNS
BT-549 breast = test system: BT-549 breast
HCT-116 colon = test system: HCT-116 colon
HS 578T breast = test system: HS 578T breast
MDA-N = test system: MDA-N
LOX IMVI melanoma = test system: LOX IMVI melanoma
A549 NSCLC = test system: A549 NSCLC
SN12C renal = test system: SN12C renal
M14 melanoma = test system: M14 melanoma
SK-MEL-2 melanoma = test system: SK-MEL-2 melanoma
KM12 colon = test system: KM12 colon
NCI/ADR-RES ovarian = test system: NCI/ADR-RES ovarian
SNB-75 CNS = test system: SNB-75 CNS
PC-3 prostate = test system: PC-3 prostate
ACHN renal = test system: ACHN renal
TK-10 renal = test system: TK-10 renal
T-47D breast = test system: T-47D breast
OVCAR-8 ovarian = test system: OVCAR-8 ovarian
COLO 205 colon = test system: COLO 205 colon
RXF 393 renal = test system: RXF 393 renal
HOP-62 NSCLC = test system: HOP-62 NSCLC
UACC-257 melanoma = test system: UACC-257 melanoma
IGROV1 ovarian = test system: IGROV1 ovarian
SF-268 CNS = test system: SF-268 CNS
OVCAR-4 ovarian = test system: OVCAR-4 ovarian
MALME-3M melanoma = test system: MALME-3M melanoma
SK-MEL-28 melanoma = test system: SK-MEL-28 melanoma
EKVX NSCLC = test system: EKVX NSCLC
OVCAR-5 ovarian = test system: OVCAR-5 ovarian
UO-31 renal = test system: UO-31 renal
MOLT-4 leukemia = test system: MOLT-4 leukemia
NCI-H226 lung = test system: NCI-H226 lung
CCRF-CEM leukemia = test system: CCRF-CEM leukemia
HCC-2998 colon = test system: HCC-2998 colon
HT29 colon = test system: HT29 colon
MDA-MB-435 = test system: MDA-MB-435
U251 CNS = test system: U251 CNS
786-0 renal = test system: 786-0 renal
RPMI-8226 leukemia = test system: RPMI-8226 leukemia
HCT-15 colon = test system: HCT-15 colon
MDA-MB-231 breast = test system: MDA-MB-231 breast
SK-OV-3 ovarian = test system: SK-OV-3 ovarian
NCI-H23 lung = test system: NCI-H23 lung
UACC-62 melanoma = test system: UACC-62 melanoma
MCF7 breast = test system: MCF7 breast
OVCAR-3 ovarian = test system: OVCAR-3 ovarian
HL-60(TB) leukemia = test system: HL-60(TB) leukemia
SK-MEL-5 melanoma = test system: SK-MEL-5 melanoma
A498 renal = test system: A498 renal
HOP-92 NSCLC = test system: HOP-92 NSCLC
NCI-H522 lung = test system: NCI-H522 lung
NCI-H460 lung = test system: NCI-H460 lung

C[C@@H]1S[C@H](c2c(F)cccc2Cl)n2c1nc1ccccc12
TGI (CAKI-1 renal): 76.5 µM
TGI (SF-295 CNS): 42 µM
TGI (SR leukemia): 67.7 µM
TGI (SF-539 CNS): 28.9 µM
TGI (K-562 leukemia): > 100 µM
TGI (DU-145 prostate): > 100 µM
TGI (SW-620 colon): 27.2 µM
TGI (SNB-19 CNS): 88.9 µM
TGI (BT-549 breast): 28.2 µM
TGI (HCT-116 colon): 16.5 µM
TGI (HS 578T breast): 41.6 µM
TGI (MDA-N): 21.5 µM
TGI (LOX IMVI melanoma): 25.3 µM
TGI (A549 NSCLC): 61.3 µM
TGI (SN12C renal): 29 µM
TGI (M14 melanoma): 42 µM
TGI (SK-MEL-2 melanoma): 29.3 µM
TGI (KM12 colon): 20.5 µM
TGI (NCI/ADR-RES ovarian): 31.4 µM
TGI (SNB-75 CNS): 60.8 µM
TGI (PC-3 prostate): 23.7 µM
TGI (ACHN renal): > 100 µM
TGI (TK-10 renal): > 100 µM
TGI (T-47D breast): 79.5 µM
TGI (OVCAR-8 ovarian): > 100 µM
TGI (COLO 205 colon): 23.6 µM
TGI (RXF 393 renal): 28.8 µM
TGI (HOP-62 NSCLC): 29.4 µM
TGI (UACC-257 melanoma): 38.5 µM
TGI (IGROV1 ovarian): 59.5 µM
TGI (SF-268 CNS): 36.3 µM
TGI (OVCAR-4 ovarian): 37 µM
TGI (MALME-3M melanoma): 30.6 µM
TGI (SK-MEL-28 melanoma): 26.5 µM
TGI (EKVX NSCLC): 56 µM
TGI (OVCAR-5 ovarian): > 100 µM
TGI (UO-31 renal): 24.2 µM
TGI (MOLT-4 leukemia): 32 µM
TGI (NCI-H226 lung): 37 µM
TGI (CCRF-CEM leukemia): 42.6 µM
TGI (HCC-2998 colon): 26.5 µM
TGI (HT29 colon): 29.3 µM
TGI (MDA-MB-435): 25.1 µM
TGI (U251 CNS): 22.7 µM
TGI (786-0 renal): 28.4 µM
TGI (RPMI-8226 leukemia): 40.2 µM
TGI (HCT-15 colon): 19.3 µM
TGI (MDA-MB-231 breast): 27 µM
TGI (SK-OV-3 ovarian): 55.9 µM
TGI (NCI-H23 lung): 28 µM
TGI (UACC-62 melanoma): 29.7 µM
TGI (MCF7 breast): 81.8 µM
TGI (OVCAR-3 ovarian): 28.2 µM

CCCCC(=O)/C=c1/cc(C)[nH]c2cccc3cnn1c32
TGI (CAKI-1 renal): > 100 µM
TGI (HL-60(TB) leukemia): > 100 µM
TGI (SF-295 CNS): > 100 µM
TGI (SR leukemia): > 100 µM
TGI (SF-539 CNS): > 100 µM
TGI (DU-145 prostate): > 100 µM
TGI (SW-620 colon): > 100 µM
TGI (SNB-19 CNS): > 100 µM
TGI (BT-549 breast): > 100 µM
TGI (HCT-116 colon): > 100 µM
TGI (HS 578T breast): > 100 µM
TGI (MDA-N): > 100 µM
TGI (LOX IMVI melanoma): > 100 µM
TGI (A549 NSCLC): > 100 µM
TGI (SN12C renal): > 100 µM
TGI (M14 melanoma): > 100 µM
TGI (SK-MEL-2 melanoma): > 100 µM
TGI (KM12 colon): > 100 µM
TGI (NCI/ADR-RES ovarian): > 100 µM
TGI (PC-3 prostate): > 100 µM
TGI (ACHN renal): > 100 µM
TGI (TK-10 renal): > 100 µM
TGI (T-47D breast): > 100 µM
TGI (OVCAR-8 ovarian): > 100 µM
TGI (COLO 205 colon): > 100 µM
TGI (HOP-62 NSCLC): > 100 µM
TGI (UACC-257 melanoma): > 100 µM
TGI (IGROV1 ovarian): > 100 µM
TGI (SF-268 CNS): > 100 µM
TGI (OVCAR-4 ovarian): > 100 µM
TGI (MALME-3M melanoma): > 100 µM
TGI (SK-MEL-28 melanoma): > 100 µM
TGI (EKVX NSCLC): > 100 µM
TGI (SK-MEL-5 melanoma): > 100 µM
TGI (OVCAR-5 ovarian): > 100 µM
TGI (UO-31 renal): > 100 µM
TGI (A498 renal): > 100 µM
TGI (MOLT-4 leukemia): > 100 µM
TGI (NCI-H226 lung): > 100 µM
TGI (CCRF-CEM leukemia): > 100 µM
TGI (HT29 colon): > 100 µM
TGI (MDA-MB-435): > 100 µM
TGI (U251 CNS): > 100 µM
TGI (786-0 renal): > 100 µM
TGI (HOP-92 NSCLC): > 100 µM
TGI (RPMI-8226 leukemia): > 100 µM
TGI (HCT-15 colon): > 100 µM
TGI (MDA-MB-231 breast): > 100 µM
TGI (NCI-H522 lung): > 100 µM
TGI (SK-OV-3 ovarian): > 100 µM
TGI (NCI-H23 lung): > 100 µM
TGI (UACC-62 melanoma): > 100 µM
TGI (MCF7 breast): > 100 µM
TGI (OVCAR-3 ovarian): > 100 µM

O=C1C=C(c2ccccc2)OC1C1Sc2ccccc2NC1=O (stereo not given)
TGI (CAKI-1 renal): > 100 µM
TGI (HL-60(TB) leukemia): 13.6 µM
TGI (SF-295 CNS): 27 µM
TGI (SF-539 CNS): > 100 µM
TGI (K-562 leukemia): > 28.3 µM
TGI (DU-145 prostate): > 81 µM
TGI (SW-620 colon): > 100 µM
TGI (SNB-19 CNS): > 82.8 µM
TGI (BT-549 breast): > 100 µM
TGI (HCT-116 colon): 24.6 µM
TGI (HS 578T breast): > 100 µM
TGI (MDA-N): > 100 µM
TGI (LOX IMVI melanoma): > 64.6 µM
TGI (A549 NSCLC): > 44.7 µM
TGI (SN12C renal): 68.8 µM
TGI (M14 melanoma): 35.6 µM
TGI (SK-MEL-2 melanoma): > 41.1 µM
TGI (KM12 colon): > 100 µM
TGI (NCI/ADR-RES ovarian): > 80.9 µM
TGI (SNB-75 CNS): 50.3 µM
TGI (PC-3 prostate): > 54.9 µM
TGI (ACHN renal): > 62.6 µM
TGI (TK-10 renal): > 27.9 µM
TGI (T-47D breast): > 100 µM
TGI (OVCAR-8 ovarian): > 46.4 µM
TGI (COLO 205 colon): 18.5 µM
TGI (RXF 393 renal): > 94.4 µM
TGI (HOP-62 NSCLC): > 19.8 µM
TGI (UACC-257 melanoma): > 24.4 µM
TGI (IGROV1 ovarian): > 100 µM
TGI (SF-268 CNS): > 100 µM
TGI (OVCAR-4 ovarian): > 100 µM
TGI (MALME-3M melanoma): > 100 µM
TGI (SK-MEL-28 melanoma): > 100 µM
TGI (EKVX NSCLC): > 100 µM
TGI (SK-MEL-5 melanoma): 38.2 µM
TGI (OVCAR-5 ovarian): > 100 µM
TGI (UO-31 renal): 76.1 µM
TGI (A498 renal): > 31.5 µM
TGI (MOLT-4 leukemia): > 40.1 µM
TGI (NCI-H226 lung): > 83.3 µM
TGI (CCRF-CEM leukemia): > 24.4 µM
TGI (HCC-2998 colon): > 31.3 µM
TGI (HT29 colon): > 100 µM
TGI (MDA-MB-435): > 100 µM
TGI (U251 CNS): > 43.3 µM
TGI (786-0 renal): > 66.3 µM
TGI (HOP-92 NSCLC): > 87 µM
TGI (NCI-H460 lung): > 20.9 µM
TGI (RPMI-8226 leukemia): 12.5 µM
TGI (HCT-15 colon): > 100 µM
TGI (MDA-MB-231 breast): > 57.1 µM
TGI (NCI-H522 lung): 33.8 µM
TGI (SK-OV-3 ovarian): > 33.8 µM
TGI (NCI-H23 lung): > 31.5 µM
TGI (UACC-62 melanoma): > 49.3 µM
TGI (MCF7 breast): > 23.6 µM
TGI (OVCAR-3 ovarian): 18.9 µM
